Results reported in PubChem BioAssay AID2305 (GlaxoSmithKline (GSK), 2010).

Each compound was assayed on P. falciparum 3D7 growth, pLDH absorbance (assay: P. falciparum 3D7 growth inhibition, dose response, strain 3D7 (AID 2305)).

Row | Structure (SMILES) | IC50 [nM]
1 | CCC(=O)Nc1ccc(Nc2nc(C)cc(N3CCCC3)n2)cc1 | 1320
2 | CC(CN1CCN(C)CC1)C(=O)Nc1ccc(-c2ccc(-c3nc4ccc(F)cc4[nH]3)cc2)cc1 (centres undefined) | 790
3 | Cc1cc2nc(-c3ccc(C(=O)NCc4cccc(C(F)(F)F)c4)cc3)[nH]c2cc1C | 810
4 | COc1ccc(-c2ccc(CNC3Cc4ccccc4C3)cc2)cc1S(=O)(=O)NCCN1CCCC1 | 800
5 | COc1ccc2nccc([C@H](O)CN3CCC(NCc4ccc5c(c4C)OCCO5)CC3)c2n1 | 890
6 | COc1cccc2c(C)cc(NCc3ccc(Cl)cc3)nc12 | 860
7 | COc1ccc(F)cc1-c1cccc(CNC2CCN(CC3Cn4c(=O)ccc5ccc(F)c3c54)CC2)c1 (centres undefined) | 830
8 | CC(C)CNCc1cccc(-c2ccc(CN(C(=O)NCCc3ccccc3)C3CCN(Cc4ccccc4)CC3)cc2)c1 | 760
9 | CCCc1cc([C@@H](O)[C@@H]2C[C@@H]3CCN2C[C@@H]3CC)c2ccccc2n1 | 430
10 | Cc1cc(N[C@@H](CC(C)C)C(=O)NCc2cccc(F)c2)nc(Nc2ccccc2)n1 | 1090
11 | COc1cc(NC(=O)/C=C/c2cccc3ccoc23)ccc1OCCN(C(C)C)C(C)C | 1040
12 | CCNc1cc(C)nc(Nc2ccc(F)cc2)n1 | 800
13 | COc1c(CCNCCCCNCCc2cc(Cl)c3ccccc3c2OC)cc(Cl)c2ccccc12 | 170
14 | Cc1cc(NCCC(=O)NCCOc2ccccc2)nc(NCCOc2ccccc2)n1 | 870
15 | Cc1cc(NC2CCCC2)nc(Nc2ccccc2)n1 | 990
16 | CN(C)c1cccc(NC(=O)NC2N=C(c3ccccc3)c3ccccc3N(CC(=O)N(C)c3ccccc3)C2=O)c1 (centres undefined) | 950
17 | Cc1cccc2[nH]c(-c3cccc(-c4cccc(NC(=O)CN5CCN(C)CC5)c4)c3)nc12 | 530
18 | NC(=O)c1cccc(C(=O)Nc2cccc(-c3ccc(-c4nc5ccc(C(F)(F)F)cc5[nH]4)cc3)c2)c1 | 520
19 | CCc1ccc(C2CCN(CCCCNC(=O)c3ccc(NC(=O)c4ccc(Cl)cc4)cc3)CC2)c(OCCO)c1 | 1390
20 | CCOC(=O)c1c(C)n(-c2ccccc2)c2ccc(O)cc12 | 470
21 | CC1CCC(C[C@@H](C(=O)N[C@@H](CCC(=O)N2CCCCC2)C(=O)Nc2nccs2)[C@H](C(C)C)N(O)C=O)CC1 (some centres undefined) | 620
22 | N#Cc1cccc(CN2CCCN(c3ccc(NC(=O)c4cccs4)cc3)CC2)c1 | 810
23 | CN(C)CCN(C)Cc1ccc(-c2ccc(NC(=O)c3cccc(C#N)c3)cc2)cc1 | 1270
24 | Cc1ccc(NC(=O)c2ccc3ncccc3c2)cc1OC1CCN(CCC(C)C)C1 (centres undefined) | 350
25 | CNCCCCCCOc1ccc(CC(C)NCC(O)c2cccc(C(F)(F)F)c2)cc1 (centres undefined) | 880

Row | Structure (SMILES) | IC50 [nM]
26 | COCCNCc1cccc(-c2ccc3c(Nc4ccc(Oc5cccnc5)cc4)ccnc3c2)c1 | 180
27 | NC1=NC2(CCCCC2)N(OCCOc2ccc(Cc3ccccc3)cc2)C(N)=N1 | 1130
28 | Cc1cccc2[nH]c(-c3ccc(-c4ccc(CN5CCCC(N)C5)cc4)s3)nc12 (centres undefined) | 380
29 | CCCCn1c(-c2ccco2)nc2c(c(=O)c3ccccc3n2C)c1=O | 1240
30 | Cn1cncc1-c1ccc2ncnc(Nc3ccc(OCc4ccccc4)cc3)c2c1 | 1340
31 | CC(C)(CNCc1ccc(F)c(F)c1)c1nc(-c2ccc(Cl)c(O)c2)c(-c2ccnc(N)n2)[nH]1 | 740
32 | O=C(COc1ccc(Cl)cc1)N1CCC(CN2CCC(c3c[nH]c4ccccc34)CC2)CC1 | 1100
33 | O=C(/C=C/c1ccc(Cl)c(Cl)c1)N1CC[C@H]2C[C@H](N3CCC(c4c[nH]c5ccccc45)CC3)CC[C@@H]2C1 | 170
34 | CC(C)=C(C(=O)OCc1ccccc1)N1C(=O)[C@@H](NC(c2ccccc2)(c2ccccc2)c2ccccc2)[C@H]1[S@@](=O)CC(=O)OC(C)(C)C | 1020
35 | O=C1COc2ccc(CNC3CCC(O)(CCc4ccnc5cc6c(cc45)OCCO6)CC3)nc2N1 (centres undefined) | 930
36 | COc1ccc(Nc2nc(NC3CCCC3)cc(-c3ccc(OC)cc3)n2)cc1 | 1030
37 | Nc1c(Cl)cc(C(O)CNCCCCCCOCCC=C2CCOCC2)cc1Cl (centres undefined) | 630
38 | CN1CCN(c2cc(NC(=O)Nc3ccc(-c4ccncc4)c(Cl)c3)ccc2Br)CC1 | 900
39 | Cc1cccc2[nH]c(-c3cccc(-c4ccc(NC(=O)C(C)CN5CCN(C)CC5)cc4)c3)nc12 (centres undefined) | 180
40 | Cc1cccc2[nH]c(-c3ccc(-c4cccc(CN5CCCC5CN)c4)s3)nc12 (centres undefined) | 870
41 | COc1ccccc1N1CCN(C(C(=O)NCc2cccc(F)c2)c2ccc(C)cc2)CC1 (centres undefined) | 890
42 | Cc1cc(NCCC(=O)NCCOc2ccccc2)nc(Nc2ccccc2)n1 | 1060
43 | CCC(C)CN1CCC(N(C)c2cc(NC(=O)c3cccc(C)c3)ccn2)CC1 (centres undefined) | 940
44 | CN(C)C1CCN(CC#Cc2cc3ncnc(Nc4ccc(OCc5cccc(F)c5)c(Cl)c4)c3s2)CC1 | 890
45 | CC1CCN(c2nc(C(=O)Nc3cccc4c3CCCC4)c(C(C)C)s2)CC1 | 1040
46 | CC(C)CNC(=O)c1ccnc(-c2ccc(CNCCCc3ccccc3)cc2)c1 | 730
47 | NC(=O)c1cc(-c2ccccc2)cc2c(C3CCC(NCc4ccccc4)C3)c[nH]c12 (centres undefined) | 910
48 | CCCCCN1CCCC(NS(=O)(=O)c2ccc(C(=O)Nc3ccc(C(F)(F)F)cc3)cc2)C1 (centres undefined) | 1630
49 | CN(C)CCCNCc1ccc(-c2ccc(CNCCOc3ccccc3)cc2)cc1 | 20
50 | CC(CCc1ccccc1)NCC(O)c1cccc([N+](=O)[O-])c1 (centres undefined) | 860

Row | Structure (SMILES) | IC50 [nM]
51 | CCCCOc1c(CCNCCCCNCCc2cc(OC)c3ccccc3c2OCCCC)cc(OC)c2ccccc12 | 920
52 | COc1ccccc1-c1cccc2c(NC(=O)Nc3ccc4nccc(N5CCN(C)CC5)c4c3)ccnc12 | 1000
53 | Cc1nnsc1C(=O)Nc1cccc(-c2ccc(-c3nc4ccccc4[nH]3)s2)c1 | 880
54 | CCOc1cc(C)ccc1C1CCN(CCCCNC(=O)c2ccc(-c3ccc(Cl)cn3)cc2)CC1 | 1610
55 | Cc1cc(C(=O)Nc2ccc(OCc3ccccc3)cc2)on1 | 990
56 | Oc1ccc(CN2CCC(NCc3cccc(C(F)(F)F)c3)CC2)cc1 | 680
57 | CCOc1ccc(C(C)NC(=O)c2cc(Cl)ccc2OC)cc1OCC (centres undefined) | 970
58 | CCCC(=O)Nc1ccc(OCCCN(Cc2ccccc2OC(F)(F)F)c2ccc(C#N)c(C(F)(F)F)c2)cc1 | 600
59 | CCN(CC)C(=NC(N)=NCCCCCCN=C(N)N=C(Nc1ccc(Cl)cc1)N(CC)CC)Nc1ccc(Cl)cc1 | 930
60 | CS(=O)(=O)Nc1cccc(-c2cnc3[nH]cc(-c4ccc(C(=O)O)c(F)c4)c3c2)c1 | 830
61 | CC(=O)N(C)c1ccc(C(=O)Nc2cccc(-c3cccc(-c4nc5ccc(C(F)(F)F)cc5[nH]4)c3)c2)cc1 | 310
62 | CC1CCN(CC[C@H]2CCCN2S(=O)(=O)c2cccc(NC(=O)c3ccc(-c4ccc(Cl)cc4)o3)c2)CC1 | 690
63 | Cc1ccc(CN2CCCN(Cc3ccc(C(=O)Nc4ccc(Cl)cc4)cc3)CC2)s1 | 1110
64 | c1cc(-c2ccc(CN3CCCCC3)cc2)cc(-c2nc3ccccc3[nH]2)c1 | 580
65 | COc1ccccc1-c1cccc(-c2cccc(NC(=O)c3ccc([N+](=O)[O-])o3)c2)n1 | 600
66 | CCN(CCCN1CCCCC1)c1cc(C)nc(Nc2cc(F)cc(F)c2)n1 | 570
67 | Cn1cncc1C(=O)Nc1ccc(-c2cccc(-c3nc4ccc(F)cc4[nH]3)c2)cc1 | 820
68 | O=C(Nc1cc(C(F)(F)F)ccc1Cl)c1ccc(Cn2cc(Br)cn2)cc1 | 1350
69 | O=C(Nc1ccccc1)N(Cc1ccccc1-c1cccc(CNCCc2ccccc2)c1)C1CCN(Cc2ccccc2)CC1 | 180
70 | O=C(Nc1ccccc1)N1CCC(CN2CCOC(c3ccccc3)(c3ccccc3)C2)CC1 | 210
71 | CN1CCN(C(C(=O)NCc2cc(Cl)cc(Cl)c2)c2ccccc2-c2ccsc2)CC1 (centres undefined) | 940
72 | Cc1ccc(C(=O)NC2C(=O)NC2c2ccccc2)c(C)c1 (centres undefined) | 950
73 | O=C(Nc1ccc(F)c(Cl)c1)NC1CCN(c2ccnc3cc(Cl)ccc23)C1 (centres undefined) | 210
74 | COc1ccc(NC(=O)Nc2ccc(-c3ccccc3)cc2Cl)cc1N1CCN(C)CC1 | 870
75 | O=C(Nc1cccc(CN2CCCN(Cc3ccc4c(c3)OCO4)CC2)c1)c1ccc2ccccc2c1 | 1050

Row | Structure (SMILES) | IC50 [nM]
76 | Cc1ccc(C)c(Cn2ccc3nc(Cl)nc(Cl)c32)c1 | 910
77 | CCCCCCCNCc1c(O)ccc2c(CNCCCCCCC)c(O)ccc12 | 150
78 | CCCCCCCc1c2c(C)c(C(=O)OCC)nc-2cc2n1CC(C)=C2C | 1140
79 | Cc1nc(Nc2ccc(F)cc2)nc(N2CCc3ccccc3C2C)c1CO (centres undefined) | 740
80 | CCN(CC)C(=O)C(=O)c1c[nH]c2ccc(Cl)cc12 | 80
81 | COc1ccc2nccc([C@@H](O)CN3CCC(NC(=O)/C(=C/c4ccccc4)c4ccc(-c5ccccc5)cc4)CC3)c2c1 | 1050
82 | Cc1cccc(CN2CCCN(Cc3ccc(C(=O)Nc4ccc(C)c(F)c4)cc3)CC2)c1 | 1060
83 | COc1ccc2ncc(F)c(NC(=O)C3CCC(NCc4cc5c(F)cccc5[nH]4)CC3)c2n1 (centres undefined) | 1090
84 | c1ccc(-c2ccc3c(Nc4ccc5[nH]ncc5c4)ccnc3c2)nc1 | 820
85 | COc1cc2nccc(Nc3cccc(Oc4ccccc4)c3)c2cc1OC | 640
86 | Clc1ccccc1CN1CCC(NCc2cccc(-n3ccnc3)c2)CC1 | 790
87 | CSc1nc2cc3c(cc2n1C(=O)c1ccc(C)cc1)OCCO3 | 170
88 | CCN(CC)CCCC(C)Nc1cc(C=Cc2ccc([N+](=O)[O-])cc2)nc2ccc(OC)cc12 (centres undefined) | 570
89 | CC(C)C[C@H](NC(=O)c1ccc(F)cc1)C(=O)N[C@H](/C=N/NC(=O)c1ccccc1)CCc1ccccc1 | 810
90 | COc1ccc(NC(=O)c2ccc(OCCCCCCCOc3ccc(C(=O)Nc4ccc(OC)c(N5CCN(C)CC5)c4)cc3)cc2)cc1N1CCN(C)CC1 | 600
91 | CN1CC=C(c2c[nH]c3ccc(Oc4ccccc4)cc23)CC1 | 250
92 | COc1cc(Cc2cnc(N)nc2N)cc(OCCCCNS(=O)(=O)C(F)(F)F)c1OC | 1040
93 | Cc1ccc2nc(C)cc(NN=Cc3cccc(F)c3)c2c1 | 630
94 | c1ccc2c(NCCc3cnc[nH]3)c3ccccc3nc2c1 | 1040
95 | O=C(N[C@H]1CCN(Cc2ccc(OCCCN3CCCCC3)cc2)C1)c1ccc2ccccc2c1 | 760
96 | COc1cc2nc(NCCc3ccccc3)nc(NCc3ccc(C#N)cc3)c2cc1OC | 150
97 | COc1ccc2nc3cc(Cl)ccc3c(N)c2c1 | 170
98 | CO/C(=C\C=C\c1cc2cc(Cl)c(Cl)cc2[nH]1)C(=O)NC1C[C@H]2CCC[C@@H](C1)N2C (some centres undefined) | 1000
99 | Cn1cncc1C(=O)Nc1cccc(-c2ccc(-c3nc4ccccc4[nH]3)cc2)c1 | 850
